Measured values as given in US7132261B2, “Orphan receptor” (Karo Bio AB, priority 1995, dated 2006).
Read-outs that look alike come from different tables or passages of the source.

Experiments:
clone 29 protein (rERβ) [1] = biological target: T1, clone 29 protein (rERβ) (Rattus norvegicus, UniProt Q62986); assay: Ligand competition studies against [3H]E2, clone 29 protein in reticulocyte lysate; type: binding; set-up: The open reading frame encodes a protein of 485 amino acid residues (counted from the first methionine); settings: for times less effective as competitor (compared with unlabelled E2): 5 nM [3H]E2, 16 h at 8° C.; for efficient competition with [3H]E2 for binding: 5 nM [3H]E2, highest concentrations used (1000 fold excess)
Text: Bound and unbound steroids were separated with a dextran-coated charcoal assay (Ekman, P., Barrack, E. R., Greene, G. L., Jensen, E. V., & Walsh, P. C. (1983) J. Clin. Endocrinol Metab. 57, 166–176).

clone 29 protein (rERβ) [2] = biological target: T1, clone 29 protein (rERβ); assay: Transactivation analysis in CHO-cells (ERE-ALP reporter, clone 29 expression vector); type: cell-based; set-up: The open reading frame encodes a protein of 485 amino acid residues (counted from the first methionine); expressed in transfected cells; host or cells: CHO-K1 cells transiently transfected with pCMV29 and pERE-ALP; settings: for stimulation of transcriptional activity of clone 29 protein: highest concentration tested 1000 nM
Text: The expression vector pCMV29 was constructed by inserting the 2.6 kb clone 29 fragment in the EcoRI site of the expression vector pCMV5 (Andersson, S., Davis, D.L., Dahlbäck, H., Jörnvall, H., & Russell, D.W. (1989) J. Biol. Chem. 264, 8222–8229). The pERE-ALP reporter construct contains a secreted form of the plancental alkaline phosphatase gene (Berger, J., Hauber, J., Hauber, R., Geiger, R., & Cullen, B.R. (1988) Gene 66 1–10) and the MMTV-LTR in which the glucocorticoid response elements were replaced by the vitellogenin promoter estrogen response element (ERE). The vector pCMV29 containing the clone 29 fragment was deposited with NCIMB, Ferguson Building, Craibstone Estate, Bucksburn, Aberdeen, Scotland, UK AB21 9YA in accordance with the Budapest Treaty on the International Recognition of the Deposit of Microorganisms for the Purposes of Patent Procedure on 26 May 2006, under accession No. NCIMB 41404. The deposit was named “Escherichia coli DH5 prat ER (CmV29)”. All restrictions on the availability to the public of the material deposited will be irrevocably removed upon the granting of a patent.
CHO-K1 cells were seeded in 12-well plates at approximately 1.7×10^5 cells per well in phenol-red free Ham F12 medium with 5% FCS (dextran-coated charcoal treated) and 2 mM Lglutamine. After 24 h the cells were transfected with 250 ng pERE-ALP vector and 50 ng pCMV29 using lipofectamine (Gibco) according to the manufacturer's instructions. After five hours of incubation the cells were washed and refed with 0.5 ml phenol-red free Coon's F-12 medium containing 5% serum substitute (SRC 3000, Tissue Culture Services Ltd., Botolph Claydon, Buckingham, UK) 2 mM Lglutamine and 50 μg/ml gentamicin plus hormones as indicated. After 48 h the medium was assayed for alkaline phosphatase (ALP) activity by a chemiluminescence assay. A 10 μl aliquot of the cell culture medium was mixed with 200 μl assay buffer (10 mM diethanolamine pH 10.0 1 mM MgCl2 and 0.5 mM CSPD (Tropix Inc. Boston, USA) ) and incubated for 20 min at 37° C. before measurement in a microplate luminometer (Luminoskan; Labsystems, Finland) with integral measurement for 1 second. The ALP activity of ERE-reporter alone was set at 1.
To investigate the transcriptional regulatory properties of clone 29 protein, we performed co-transfection experiments in which CHO cells were transfected with a clone 29 protein expression vector and/or an estrogen-responsive reporter gene construct. […] CHO-cells were transiently transfected with the ERE-reporter plasmid and the clone 29 protein expression plasmid. […] Alkaline phosphatase activity (ALP) was measured as described and the activity in the absence of ligand (control) was set at 1.

rERβ = biological target: T2, rERβ (Rattus norvegicus, UniProt Q62986); assay: Equilibrium binding saturation experiments with [125I]-E2, rERβ
T2 construct: Clone 29 protein consists of 485 amino acid residues; made in house; host or cells: rabbit reticulocyte lysate in vitro translation (Promega)
Text: Equilibrium binding saturation experiments (Kd-determinations)

T1 sequence (Q62986 46-530): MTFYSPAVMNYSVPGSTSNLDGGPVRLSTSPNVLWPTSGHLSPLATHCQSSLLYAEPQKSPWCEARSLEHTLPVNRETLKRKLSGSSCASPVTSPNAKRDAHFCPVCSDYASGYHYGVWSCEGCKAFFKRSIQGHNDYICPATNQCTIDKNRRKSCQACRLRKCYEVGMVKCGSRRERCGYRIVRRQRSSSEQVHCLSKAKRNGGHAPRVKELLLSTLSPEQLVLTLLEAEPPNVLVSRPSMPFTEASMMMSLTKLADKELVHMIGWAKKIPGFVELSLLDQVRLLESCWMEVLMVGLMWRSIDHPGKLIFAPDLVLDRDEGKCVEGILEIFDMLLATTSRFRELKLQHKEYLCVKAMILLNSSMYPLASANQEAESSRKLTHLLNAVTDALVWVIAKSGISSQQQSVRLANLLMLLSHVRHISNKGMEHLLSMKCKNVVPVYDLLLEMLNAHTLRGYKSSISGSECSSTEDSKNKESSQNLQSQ
T2 sequence (Q62986 46-530): as above

Row | SMILES | times less effective as competitor (compared with unlabelled E2) (clone 29 protein (rERβ) [1]) | efficient competition with [3H]E2 for binding (clone 29 protein (rERβ) [1]) | stimulation of transcriptional activity of clone 29 protein (clone 29 protein (rERβ) [2]) | also measured
1 | C[C@]12CC[C@@H](O)C[C@@H]1CC[C@@H]1[C@@H]2CC[C@]2(C)[C@@H](O)CC[C@@H]12 [5α-androstane-3α,17β-diol] | 150 times | Neither testosterone, progesterone, corticosterone nor 5α-androstane-3α,17β-diol were efficient competitors | could not stimulate transcriptional activity | 
2 | C[C@]12CC[C@H](O)C[C@@H]1CC[C@@H]1[C@@H]2CC[C@]2(C)[C@@H](O)CC[C@@H]12 [5α-androstane-3β,17β-diol] |  |  | could stimulate transcriptional activity, albeit at higher concentrations | 
3 | CCCCN(C)C(=O)CCCCCCCCCC[C@@H]1Cc2cc(O)ccc2[C@H]2CC[C@]3(C)[C@@H](O)CC[C@H]3[C@H]12 [ICI-1624384] |  |  |  | suppression of the constitutive transcriptional activity of clone 29 protein (clone 29 protein (rERβ) [2]; no E2 added, not shown): could be suppressed
4 | C[C@]12CC[C@@H]3c4ccc(O)cc4CC[C@H]3[C@@H]1C[C@@H](I)[C@@H]2O [[^125I]-E2, 16α[^125I]-17β-estradiol] |  |  |  | Kd (rERβ; read-out: Kd (Hill-plot)): 0.24 nM; Kd (rERβ; read-out: Kd (Scatchard-plot)): 0.42 nM
5 | C[C@]12C[C@H](O)[C@H]3[C@@H](CCC4=CC(=O)CC[C@@]43C)[C@@H]1CC[C@@H]2C(=O)CO [corticosterone] |  | Neither testosterone, progesterone, corticosterone nor 5α-androstane-3α,17β-diol were efficient competitors |  | 
6 | CC/C(=C(/CC)c1ccc(O)cc1)c1ccc(O)cc1 [diethylstilbestrol] | 5 times |  |  | 
7 | C[C@]12CC[C@@H]3c4ccc(O)cc4CC[C@H]3[C@@H]1C[C@@H](O)[C@@H]2O [estriol] | 15 times |  |  | 
8 | CC(=O)[C@H]1CC[C@H]2[C@@H]3CCC4=CC(=O)CC[C@]4(C)[C@H]3CC[C@]12C [progesterone] |  | Neither testosterone, progesterone, corticosterone nor 5α-androstane-3α,17β-diol were efficient competitors | could not stimulate transcriptional activity | 
9 | C[C@]12CC[C@H]3[C@@H](CCC4=CC(=O)CC[C@@]43C)[C@@H]1CC[C@@H]2O [testosterone] |  | Neither testosterone, progesterone, corticosterone nor 5α-androstane-3α,17β-diol were efficient competitors | could not stimulate transcriptional activity | 
